Test results published in US20230399319A1, “Acylsulfamide Compound and Pharmaceutical Use Therefor” (Japan Tobacco Inc., priority 2019, published 2023).
pIC50: −log10 of the molar value. Read-outs that look alike come from different tables or passages of the source.

Target: NLRP3 inflammasome (Homo sapiens (Human), UniProt Q96P20)
Assay: Evaluation of NLRP3 inflammasome inhibitory activity (inhibition of IL-1β production in THP1-Null cells, LPS/Nigericin)

NLRP3 inflammasome, sequence (Q96P20 whole entry): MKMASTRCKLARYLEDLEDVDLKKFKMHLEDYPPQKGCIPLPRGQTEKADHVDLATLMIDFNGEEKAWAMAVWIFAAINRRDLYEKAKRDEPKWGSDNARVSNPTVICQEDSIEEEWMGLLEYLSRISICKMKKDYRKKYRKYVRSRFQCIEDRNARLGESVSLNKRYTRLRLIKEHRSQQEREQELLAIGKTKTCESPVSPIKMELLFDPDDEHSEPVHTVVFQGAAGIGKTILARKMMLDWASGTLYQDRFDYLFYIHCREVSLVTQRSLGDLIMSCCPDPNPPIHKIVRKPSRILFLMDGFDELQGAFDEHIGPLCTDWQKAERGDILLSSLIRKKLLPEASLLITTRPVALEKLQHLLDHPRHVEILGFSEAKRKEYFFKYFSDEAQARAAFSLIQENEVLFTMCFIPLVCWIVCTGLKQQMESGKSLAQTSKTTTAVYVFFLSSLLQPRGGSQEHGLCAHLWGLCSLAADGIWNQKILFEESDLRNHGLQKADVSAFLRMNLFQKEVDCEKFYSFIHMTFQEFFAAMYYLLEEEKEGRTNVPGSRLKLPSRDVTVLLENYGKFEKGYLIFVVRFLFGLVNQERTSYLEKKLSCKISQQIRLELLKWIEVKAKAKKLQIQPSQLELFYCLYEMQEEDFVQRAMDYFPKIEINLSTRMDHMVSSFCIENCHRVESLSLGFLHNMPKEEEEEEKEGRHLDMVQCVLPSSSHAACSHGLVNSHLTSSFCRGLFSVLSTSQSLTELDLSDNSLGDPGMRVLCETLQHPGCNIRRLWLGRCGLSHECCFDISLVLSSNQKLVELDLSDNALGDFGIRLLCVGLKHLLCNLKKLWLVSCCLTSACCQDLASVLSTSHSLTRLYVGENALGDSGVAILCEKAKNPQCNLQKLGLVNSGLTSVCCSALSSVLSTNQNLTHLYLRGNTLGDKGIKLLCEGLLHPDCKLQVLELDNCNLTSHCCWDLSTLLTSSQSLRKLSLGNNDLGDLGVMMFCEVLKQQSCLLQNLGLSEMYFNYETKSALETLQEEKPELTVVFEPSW

Compound	pIC50 (IL-1β production in THP1-Null cells, PMA/LPS primed, Nigericin 7.5 μmol/L)	pIC50
2-((8-chloro-1,2,3,5,6,7-hexahydro-s-indacen-4-yl)amino)-N—(N,N-dimethylsulfamoyl)oxazole-4-carboxamide [Example 23]	> 7.52	
Cc1ccc(C2CC2)cc1Nc1nc(C(=O)NS(=O)(=O)N2CCC(O)C2)co1 (racemic) [Example 2-002]		6.80
Cc1ccc(C(F)(F)F)cc1Nc1nc(C(=O)NS(=O)(=O)N2CCOCC2C)co1 (racemic) [Example 2-005]		7.52
CCC1CN(S(=O)(=O)NC(=O)c2coc(Nc3cc(C(F)(F)F)ccc3C)n2)CCO1 (racemic) [Example 2-006]		7.51
Cc1ccc(C(F)(F)F)cc1Nc1nc(C(=O)NS(=O)(=O)N2CCOCC2CO)co1 (racemic) [Example 2-045]		6.74
Cc1ccc(C(F)(F)F)cc1Nc1nc(C(=O)NS(=O)(=O)N2CCOCCC2C)co1 (racemic) [Example 2-058]		7.27
COC(C)c1ccc(C)c(Nc2nc(C(=O)NS(=O)(=O)N(C)C)co2)c1 (racemic) [Example 2-061]		6.24
COC1COCCN(S(=O)(=O)NC(=O)c2coc(Nc3cc(C(F)(F)F)ccc3C)n2)C1 (racemic) [Example 2-076]		7.60
Cc1ccc(C(C)C)cc1Nc1nc(C(=O)NS(=O)(=O)N2CCOCC2C)co1 (racemic) [Example 2-081]		7.03
CCC1COCCN1S(=O)(=O)NC(=O)c1coc(Nc2cc(C(C)C)ccc2C)n1 (racemic) [Example 2-082]		6.80
COCC1CN(S(=O)(=O)NC(=O)c2coc(Nc3cc(C(F)(F)F)ccc3C)n2)CCCO1 (racemic) [Example 2-091]		7.42
Cc1ccc(C(F)(F)F)cc1Nc1nc(C(=O)NS(=O)(=O)N2CCOCC(C)C2)co1 (racemic) [Example 2-092]		7.66
COCC1CN(S(=O)(=O)NC(=O)c2coc(Nc3c(C(C)C)ccc4c3CCC4)n2)CCO1 (racemic) [Example 2-120]		6.80
COC1COCCN(S(=O)(=O)NC(=O)c2coc(Nc3cc(C(F)(F)F)ccc3C(C)C)n2)C1 (racemic) [Example 2-121]		7.46
Cc1ccc(C(F)(F)F)cc1Nc1nc(C(=O)NS(=O)(=O)N2CCOCC(C#N)C2)co1 (racemic) [Example 2-127]		6.89
Cc1ccc(C(F)(F)F)cc1Nc1nc(C(=O)NS(=O)(=O)N2CCOCC(C(=O)N(C)C)C2)co1 (racemic) [Example 2-143]		7.07
COC1CCCN(S(=O)(=O)NC(=O)c2coc(Nc3cc(C(F)(F)F)ccc3C)n2)CC1 (racemic) [Example 2-148]		7.40
Cc1ccc(C(F)(F)F)cc1Nc1nc(C(=O)NS(=O)(=O)N2CCCC(O)CC2)co1 (racemic) [Example 2-156]		7.41
Cc1ccc(C(F)(F)F)cc1Nc1nc(C(=O)NS(=O)(=O)N2CCCC(C(=O)N(C)C)CC2)co1 (racemic) [Example 2-157]		7.42
COC1CCCN(S(=O)(=O)NC(=O)c2coc(Nc3cc(C(F)(F)F)ccc3C)n2)C1 (racemic) [Example 2-159]		7.21
CC(C)c1cn(C(C)C)nc1Nc1nc(C(=O)NS(=O)(=O)N2CCOCCC2C)co1 (racemic) [Example 2-184]		6.85
COC1COCCN(S(=O)(=O)NC(=O)c2coc(Nc3cc(C(C)(F)F)ccc3C)n2)C1 (racemic) [Example 2-185]		7.42
CCCCS(=O)(=O)N1CCN(S(=O)(=O)NC(=O)c2coc(Nc3cc(C(F)(F)F)ccc3C)n2)CC(F)C1 (racemic) [Example 2-197]		7.77
Cc1ccc(C(F)(F)F)cc1Nc1nc(C(=O)NS(=O)(=O)N2CCN(S(=O)(=O)CCCF)CC(F)C2)co1 (racemic) [Example 2-198]		7.54

Compound	pIC50 (IL-1β production in THP1-Null cells, PMA/LPS primed, Nigericin 7.5 μmol/L)	pIC50
CCCCS(=O)(=O)N1CCN(S(=O)(=O)NC(=O)c2coc(Nc3cc(C(F)(F)F)ccc3C)n2)CC(OC)C1 (racemic) [Example 2-204]		7.54
COC1CN(S(=O)(=O)CCCF)CCN(S(=O)(=O)NC(=O)c2coc(Nc3cc(C(F)(F)F)ccc3C)n2)C1 (racemic) [Example 2-205]		7.44
Cc1ccc(C(F)(F)F)cc1Nc1nc(C(=O)NS(=O)(=O)N2CCCN(C(=O)C3CCOC3)CC2)co1 (racemic) [Example 2-216]		6.74
Cc1ccc(C(F)(F)F)cc1Nc1nc(C(=O)NS(=O)(=O)N2CCCN(S(=O)(=O)C3CCOC3)CC2)co1 (racemic) [Example 2-220]		7.17
CCCS(=O)(=O)N1CCN(S(=O)(=O)NC(=O)c2coc(Nc3cc(C(F)(F)F)ccc3C)n2)CC(F)C1 (racemic) [Example 2-222]		7.52
CC(C)c1ccc(C(F)F)cc1Nc1nc(C(=O)NS(=O)(=O)N2CCCN(S(=O)(=O)C3CCOC3)CC2)co1 (racemic) [Example 2-226]		7.01
Cc1ccc(C(F)(F)F)cc1Nc1nc(C(=O)NS(=O)(=O)N2CCCOC(C)C2)co1 (racemic) [Example 2-230]		7.05
Cc1ccc(C(F)(F)F)cc1Nc1nc(C(=O)NS(=O)(=O)N2CCCOCC2C)co1 (racemic) [Example 2-231]		7.05
CC(=O)N(C)C1CCCN(S(=O)(=O)NC(=O)c2coc(Nc3cc(C(F)(F)F)ccc3C)n2)CC1 (racemic) [Example 2-232]		7.52
CCS(=O)(=O)N1CCCN(S(=O)(=O)NC(=O)c2coc(Nc3cc(C(F)(F)F)ccc3C)n2)C(C)C1 (racemic) [Example 2-241]		7.43
CCS(=O)(=O)N1CCCN(S(=O)(=O)NC(=O)c2coc(Nc3cc(C(F)(F)F)ccc3C)n2)CC1C (racemic) [Example 2-242]		7.35
COC1COCCN(S(=O)(=O)NC(=O)c2coc(Nc3cc(C(F)(F)F)c(F)cc3C)n2)C1 (racemic) [Example 2-244]		7.29
CCN(C)C(=O)C1CCCN(S(=O)(=O)NC(=O)c2coc(Nc3cc(C(F)(F)F)ccc3C)n2)CC1 (racemic) [Example 2-246]		7.17
CCCS(=O)(=O)N1CCN(S(=O)(=O)NC(=O)c2coc(Nc3cc(C)ccc3C)n2)CC(OC)C1 (racemic) [Example 2-251]		7.49
CCS(=O)(=O)N1CCN(S(=O)(=O)NC(=O)c2coc(Nc3cc(C)ccc3C)n2)CC(OC)C1 (racemic) [Example 2-252]		6.72
Cc1ccc(C(F)(F)F)cc1Nc1nc(C(=O)NS(=O)(=O)N2CCCC(C)(C(=O)N(C)C)CC2)co1 (racemic) [Example 2-259]		7.06
Cc1ccc(C(F)(F)F)cc1Nc1nc(C(=O)NS(=O)(=O)N2CCOC(C)CC2)co1 (racemic) [Example 2-262]		7.74
Cc1ccc(C(F)(F)F)cc1Nc1nc(C(=O)NS(=O)(=O)N2CCCC(n3cccn3)CC2)co1 (racemic) [Example 2-273]		7.62
COC1COCCN(S(=O)(=O)NC(=O)c2coc(Nc3cc(C(C)C)ccc3C)n2)C1 (racemic) [Example 2-294]		7.43
Cc1cc(C)n(C2CCCN(S(=O)(=O)NC(=O)c3coc(Nc4cc(C(F)(F)F)ccc4C)n3)CC2)n1 (racemic) [Example 2-297]		7.06
COC1COCCN(S(=O)(=O)NC(=O)c2coc(Nc3cc(C)ccc3C(C)C)n2)C1 (racemic) [Example 2-310]		7.01
CCOC1COCCN(S(=O)(=O)NC(=O)c2coc(Nc3cc(C(F)(F)F)ccc3C)n2)C1 (racemic) [Example 2-318]		7.11
CCOC1COCCN(S(=O)(=O)NC(=O)c2coc(Nc3cc(C(C)C)ccc3C)n2)C1 (racemic) [Example 2-319]		6.96
